Laboratory results as given in patent US7737153B2, “Heteroaryloxy-substituted phenylaminopyrimidines as rho-kinase inhibitors” (Bayer Schering Pharma Aktiengesellschaft, priority 2002, dated 2010).

Columns and labels:
[1] = molecular target: T1, recombinant Rho kinase II (ROKα) (Homo sapiens, UniProt O75116); assay: Inhibition of recombinant Rho kinase II (ROKα), 33P uptake into S6 substrate peptide; assay type: biochemical; conditions: 33P-ATP, S6 phosphate-acceptor peptide, 20 min at 37° C., vs solvent control
T1 construct: purchased Upstate Biotechnology
T1 sequence (O75116 whole entry): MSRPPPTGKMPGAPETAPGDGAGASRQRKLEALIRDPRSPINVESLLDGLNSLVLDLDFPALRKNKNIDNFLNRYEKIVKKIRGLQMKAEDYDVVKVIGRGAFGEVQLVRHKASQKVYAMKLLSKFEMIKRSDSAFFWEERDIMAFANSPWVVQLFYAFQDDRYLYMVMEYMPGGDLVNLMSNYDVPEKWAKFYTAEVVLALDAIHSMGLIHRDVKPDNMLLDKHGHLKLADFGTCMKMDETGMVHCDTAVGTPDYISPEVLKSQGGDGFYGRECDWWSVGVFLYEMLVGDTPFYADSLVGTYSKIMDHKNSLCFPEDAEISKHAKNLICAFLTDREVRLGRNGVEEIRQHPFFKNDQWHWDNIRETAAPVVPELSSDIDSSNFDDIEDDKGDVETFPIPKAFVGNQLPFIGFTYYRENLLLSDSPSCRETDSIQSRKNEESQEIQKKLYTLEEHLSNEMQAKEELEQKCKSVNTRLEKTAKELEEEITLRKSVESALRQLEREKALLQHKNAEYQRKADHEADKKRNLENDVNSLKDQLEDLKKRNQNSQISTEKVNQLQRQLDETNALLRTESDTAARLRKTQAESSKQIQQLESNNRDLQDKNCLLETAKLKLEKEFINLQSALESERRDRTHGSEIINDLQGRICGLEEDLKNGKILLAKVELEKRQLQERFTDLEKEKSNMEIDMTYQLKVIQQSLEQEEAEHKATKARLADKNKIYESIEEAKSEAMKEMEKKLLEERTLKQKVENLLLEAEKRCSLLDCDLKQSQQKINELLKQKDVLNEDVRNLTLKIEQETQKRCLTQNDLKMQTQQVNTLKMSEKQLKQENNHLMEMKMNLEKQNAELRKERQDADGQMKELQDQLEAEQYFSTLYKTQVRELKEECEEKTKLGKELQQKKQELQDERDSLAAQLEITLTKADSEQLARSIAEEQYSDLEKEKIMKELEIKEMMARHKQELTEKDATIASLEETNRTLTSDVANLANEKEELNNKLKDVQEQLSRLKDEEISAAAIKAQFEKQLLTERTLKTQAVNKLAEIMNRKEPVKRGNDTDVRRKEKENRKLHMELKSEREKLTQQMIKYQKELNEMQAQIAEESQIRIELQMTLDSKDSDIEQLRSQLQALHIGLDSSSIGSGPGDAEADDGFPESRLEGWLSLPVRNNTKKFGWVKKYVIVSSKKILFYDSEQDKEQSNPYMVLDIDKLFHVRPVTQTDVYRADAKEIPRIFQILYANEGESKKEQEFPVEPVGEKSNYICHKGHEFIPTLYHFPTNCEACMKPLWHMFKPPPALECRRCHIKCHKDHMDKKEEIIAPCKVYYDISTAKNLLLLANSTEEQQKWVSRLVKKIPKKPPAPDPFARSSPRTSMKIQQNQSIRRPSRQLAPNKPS
Experimental: (§1) The inhibition of the enzyme is investigated in an in vitro assay with recombinant Rho kinase II. The vessel-relaxing action is determined using phenylephrin-induced contractions of isolated rings of the saphenous artery of rabbits.
Inhibition of Recombinant Rho Kinase II (ROKα)
The activity of Rho kinase is determined by the uptake of ^33P phosphate into a substrate peptide. To this end, commercially available Rho kinase II (Upstate Biotechnology) is pre-incubated at 37° C. in the presence of the S6 phosphate-acceptor peptide with the test substances or a solvent control for 10 min. The kinase reaction is then started by addition of ^33P-labelled ATP. After 20 min at 37° C., the reaction is stopped by addition of H3PO4. Aliquots are pipetted onto filters and the filters are washed and then covered with scintillator. The radioactivity of the ^33P-labelled peptides bound to the filter is measured in a Micro-Beta counter.

[2] = tested on: isolated rings of the saphenous artery of rabbits; assay: Vessel-relaxing action in vitro, phenylephrin-induced contractions of isolated saphenous artery rings; set-up: species or system rabbit; conditions: Oryctolagus cuniculus; contraction induced by 3×10^−8 g of phenylephrin/ml; concentration reducing control contraction by 50%
Experimental: as §1
Vessel-Relaxing Action In Vitro
Individual 3-mm-wide rings of the isolated saphenous artery of rabbits are introduced into 5 ml organ baths with Krebs-Henseleit solution (37° C., gassed with carbogen). The vessel tone is monitored isometrically and registered. Contractions are induced by addition of 3×10^−8 g of phenylephrin/ml, which is washed out again after 4 min. After a number of control cycles, the rings are pre-incubated with the substance to be examined, with the dosage being increased for each further cycle, and the subsequent contraction is compared to the intensity of the last control contraction.

With `Nc1nc(Nc2ccc(Oc3ccc4[nH]ncc4c3)c(F)c2)cc(-c2ccccc2)n1` [Example 18, N-(2-Amino-6-phenyl-4-pyrimidinyl)-N-[3-fluoro-4-(1H-indazol-5-yloxy)phenyl]amine] the IC50 [1] was 43 nM.
Work on `Nc1nc(Nc2ccc(Oc3ccc4[nH]ncc4c3)c(Cl)c2)cc(N2C[C@H]3CCCN[C@H]3C2)n1` [Example 13] yielded an IC50 [1] of 9 nM and an IC50 [2] of 2000 nM.
For `Cc1n[nH]c2cccc(Oc3ccc(Nc4cc(-c5ccncc5)nc(N)n4)cc3F)c12` [Example 1, N-[2-Amino-6-(4-pyridinyl)-4-pyrimidinyl]-N-{3-fluoro-4-[(3-methyl-1H-indazol-4-yl)oxy]phenyl}amine], the IC50 [2] was 6800 nM.
`Nc1nc(Nc2ccc(Oc3ccc4[nH]ncc4c3)c(F)c2)cc(-c2ccncc2)n1` [Example 5, N-[2-Amino-6-(4-pyridinyl)-4-pyrimidinyl]-N-[3-fluoro-4-(1H-indazol-5-yloxy)-phenyl]amine] was tested, and the IC50 [1] was 20 nM and the IC50 [2] was 1020 nM.
`Nc1nc(CN2CCCCC2)cc(Nc2ccc(Oc3ccnc4[nH]ccc34)c(F)c2)n1` [Example 117, N^4-[3-Fluoro-4-(1H-pyrrolo[2,3-b]pyridin-4-yloxy)phenyl]-6-(piperidin-1-ylmethyl)-pyrimidine-2,4-diamine] showed an IC50 [2] of 80 nM.
In the case of `Nc1nc(Nc2ccc(Oc3ccc4[nH]ncc4c3)c(F)c2)cc(N2C[C@H]3CCCN[C@H]3C2)n1` [Example 11, 6-[(4aR,7aR)-Octahydro-6H-pyrrolo[3,4-b]pyridin-6-yl]-N-4-[3-fluoro-4-(1H-indazol-5-yloxy)phenyl]-2,4-pyrimidinediamine], the IC50 [1] is reported as 6 nM and the IC50 [2] is reported as 350 nM.
`Nc1nc(Nc2ccc(Oc3ccc4cn[nH]c4c3)c(F)c2)cc(-c2ccncc2)n1` [Example 7] showed an IC50 [2] of 6700 nM.
In the case of `CN(CCO)CC1CCN(c2cc(Nc3ccc(Oc4ccnc5[nH]ccc45)c(F)c3)nc(N)n2)C1` (centres unmarked) [Example 68], the IC50 [1] is reported as 1 nM and the IC50 [2] is reported as 260 nM.
For `Nc1nc(Nc2ccc(Oc3ccc4[nH]ncc4c3)c(F)c2)cc(N2C[C@@H]3CCCN[C@@H]3C2)n1` [Example 12], the IC50 [1] was 55 nM and the IC50 [2] was 2700 nM.
With `CC(C)(C)NCc1cc(Nc2ccc(Oc3ccnc4[nH]ccc34)c(F)c2)nc(N)n1` [Example 116] the IC50 [2] was 150 nM.
`Nc1nc(Nc2ccc(Oc3ccc4[nH]ncc4c3)c(Cl)c2)cc(N[C@@H]2CCCC[C@H]2N)n1` [Example 15] was tested, and the IC50 [1] was 20 nM.
`Nc1nc(Nc2ccc(Oc3ccc4[nH]ncc4c3)c(F)c2)cc(N[C@@H]2CCCC[C@H]2N)n1` [Example 16] gave an IC50 [1] of 50 nM and an IC50 [2] of 6900 nM.
Molecule `Nc1nc(Nc2ccc(Oc3ccc4[nH]ncc4c3)c(Cl)c2)cc(-c2ccncc2)n1` [Example 6] has an IC50 [1] of 30 nM and an IC50 [2] of 4330 nM.
